These results are taken from patent US10011571B2, “Preparation method for aromatic heterocyclic compound used as selective JAK3 and/or JAK1 kinase inhibitor and application of aromatic heterocyclic compound” (SHENZHEN CHIPSCREEN BIOSCIENCES, LTD., priority 2014, dated 2018).

The test system of one assay is CTLL-2 cells. Description: Cell growth activity assay (MTS), CTLL-2 cell model. The class given is cell-based, mouse. The note with it: Mus musculus, CTLL-2, 300 nM, 24 h, read-out: CTLL-2 % growth rate @300 nM. In outline:
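Mouse IL-2-dependent T-cell line seeded ~20,000 cells/well, compounds added after 24 h at gradient concentrations (top 10 μM; CTLL-2 evaluation at 300 nM), cultured another 24 h. MTS/PMS added, 2 h at 37° C, absorbance 490 nm; inhibition vs DMSO control after negative-control background subtraction, GI50 calculated; triplicate.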

A further assay concerns HUVEC cells. The assay can be described thus: Cell growth activity assay (MTS), HUVEC cell model. The class given is cell-based. The note with it: Homo sapiens, 10 μM, 72 h, read-out: HUVEC % growth rate @10 μM. The text has this:
MTS assay is a routine method for cell toxicity detection. The basic principle is based on the capacity of dehydrogenase in the mitochondria of living cells to reduce a novel yellow […] MTS to formazan, so that the amount of living cells is proportional to the amount of formazan product by detecting the absorbance at 490 nm (OD), thereby speculating the amount of living cells according to the OD value, and understanding the capacity of the test compound to inhibit the growth of cells or to kill the cells.
HeLa cell is a human cervical cancer cell line, and belongs to epithelial tumor cell line; HUVEC is a human umbilical vein endothelial cell, and belongs to primary endothelial cell; both types of cells express all subtypes except for JAK3.
The change of JAK kinase activity has no significant influence on other cell types except for the immune cells, and both cell models mentioned above are mainly used to evaluate whether there are any other kinase targets besides JAK kinases or there are nonselective cell toxicities.
In this experiment, a cultured cell model is incubated with the test compounds at different concentrations for a specific duration. The effect of the treatment by the test compound on the growth of cells is detected using MTS assay.
MTS is performed according to routine procedure in a 96-well plate.
The model cells are inoculated into each well of the 96-well plate at an appropriate concentration (about 5000 cells/well). After 24 h, the test compounds are added at different concentration gradients (the highest final concentration is 40 μM). A solvent control (DMSO) and a negative control are also performed at the same time. Each experiment is repeated for 3 times. The cells are detected after cultured for another 72 h.
After all culture medium is aspirated out of the well, 100 μL fresh medium and 20 μL pre-formulated mixture of MTS and PMS (in a ratio of 20:1) are added to each well. After incubation at 37° C. for 2 h, it is then detected by a microplate reader (490 nm).
The cell growth inhibitory rate and GI50 of the test compound are calculated as above.
Based on the above method, cytological evaluation is performed to the compounds described herein (for the detection of CTLL-2 cell, the concentration of the test compound is 300 nM; […]).

The subject of a further assay is HeLa cells. Description: Cell growth activity assay (MTS), HeLa cell model. Type of assay: cell-based, human. The note with it: Homo sapiens, HeLa, 72 h, read-out: HeLa % growth rate. Details: activity: dose or concentration left out as unconfirmed. In outline: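 HeLa human cervical cancer cells were plated at about 5000 cells/well in a 96-well plate. After 24 h, test compounds were added in concentration gradients (highest final concentration 40 μM), alongside a DMSO solvent control and a negative control. After another 72 h, the medium was replaced with 100 μL fresh medium plus 20 μL MTS/PMS (20:1). Plates were incubated 2 h at 37° C. and absorbance was read at 490 nm to give growth inhibition and GI50.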

The next assay has as its target JAK3 (Homo sapiens (Human), UniProt P52333). Description: Z'-LYTE enzymatic activity detection, JAK3. Type of assay: biochemical. The note with it: test compound 30 nM. In outline:
(§1)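 GST-tagged human recombinant kinases with Z′-LYTE peptides (Tyr6 for JAK1, Tyr4 for JAK2 and JAK3), ATP from kit, reacted 1 h at room temperature; development 1 h, ratio 445/520 nm at 400 nm excitation gives phosphorylation. Inhibition vs solvent control at 30 nM (JAK2, JAK3) or 300 nM (JAK1); tofacitinib as positive control.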

The target in the next assay is JAK2 (Homo sapiens (Human), UniProt O60674). Description: Z'-LYTE enzymatic activity detection, JAK2. The class given is biochemical. The note with it: test compound 30 nM. In outline: as §1
Sequence of JAK2 (O60674 whole entry): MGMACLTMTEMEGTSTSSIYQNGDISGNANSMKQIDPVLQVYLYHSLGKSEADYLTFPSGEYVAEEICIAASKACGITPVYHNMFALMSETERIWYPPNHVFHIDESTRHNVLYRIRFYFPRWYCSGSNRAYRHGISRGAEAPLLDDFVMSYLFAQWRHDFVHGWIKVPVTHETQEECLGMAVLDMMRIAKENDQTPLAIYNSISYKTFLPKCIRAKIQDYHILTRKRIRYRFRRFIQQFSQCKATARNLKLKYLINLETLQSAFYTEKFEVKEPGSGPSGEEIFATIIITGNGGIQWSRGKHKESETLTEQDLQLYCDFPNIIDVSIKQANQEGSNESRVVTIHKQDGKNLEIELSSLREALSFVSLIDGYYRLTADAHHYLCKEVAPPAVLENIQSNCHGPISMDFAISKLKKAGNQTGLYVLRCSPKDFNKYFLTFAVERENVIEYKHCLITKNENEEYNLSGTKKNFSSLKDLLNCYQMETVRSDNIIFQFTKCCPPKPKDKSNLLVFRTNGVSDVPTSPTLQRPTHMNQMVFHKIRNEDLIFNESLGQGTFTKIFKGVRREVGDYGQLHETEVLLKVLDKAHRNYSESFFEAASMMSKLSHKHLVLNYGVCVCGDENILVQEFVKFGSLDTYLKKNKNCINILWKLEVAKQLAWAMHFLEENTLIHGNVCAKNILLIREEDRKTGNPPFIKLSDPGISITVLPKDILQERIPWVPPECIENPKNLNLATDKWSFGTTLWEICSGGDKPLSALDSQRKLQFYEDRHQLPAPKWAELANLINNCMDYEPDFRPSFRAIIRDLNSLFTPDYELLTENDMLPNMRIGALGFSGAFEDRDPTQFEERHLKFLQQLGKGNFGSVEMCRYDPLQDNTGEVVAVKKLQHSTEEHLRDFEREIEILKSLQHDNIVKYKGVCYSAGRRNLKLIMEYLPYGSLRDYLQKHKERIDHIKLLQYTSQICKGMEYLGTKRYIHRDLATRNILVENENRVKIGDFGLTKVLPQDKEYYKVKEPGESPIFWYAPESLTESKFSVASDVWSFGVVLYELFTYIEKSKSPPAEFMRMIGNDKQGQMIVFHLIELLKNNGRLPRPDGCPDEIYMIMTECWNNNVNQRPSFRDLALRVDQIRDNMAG
A further assay deals with JAK1 (Homo sapiens (Human), UniProt P23458). Description: Z'-LYTE enzymatic activity detection, JAK1. Type of assay: biochemical. The note with it: test compound 300 nM. In outline: as §1
Sequence of JAK1 (P23458 whole entry): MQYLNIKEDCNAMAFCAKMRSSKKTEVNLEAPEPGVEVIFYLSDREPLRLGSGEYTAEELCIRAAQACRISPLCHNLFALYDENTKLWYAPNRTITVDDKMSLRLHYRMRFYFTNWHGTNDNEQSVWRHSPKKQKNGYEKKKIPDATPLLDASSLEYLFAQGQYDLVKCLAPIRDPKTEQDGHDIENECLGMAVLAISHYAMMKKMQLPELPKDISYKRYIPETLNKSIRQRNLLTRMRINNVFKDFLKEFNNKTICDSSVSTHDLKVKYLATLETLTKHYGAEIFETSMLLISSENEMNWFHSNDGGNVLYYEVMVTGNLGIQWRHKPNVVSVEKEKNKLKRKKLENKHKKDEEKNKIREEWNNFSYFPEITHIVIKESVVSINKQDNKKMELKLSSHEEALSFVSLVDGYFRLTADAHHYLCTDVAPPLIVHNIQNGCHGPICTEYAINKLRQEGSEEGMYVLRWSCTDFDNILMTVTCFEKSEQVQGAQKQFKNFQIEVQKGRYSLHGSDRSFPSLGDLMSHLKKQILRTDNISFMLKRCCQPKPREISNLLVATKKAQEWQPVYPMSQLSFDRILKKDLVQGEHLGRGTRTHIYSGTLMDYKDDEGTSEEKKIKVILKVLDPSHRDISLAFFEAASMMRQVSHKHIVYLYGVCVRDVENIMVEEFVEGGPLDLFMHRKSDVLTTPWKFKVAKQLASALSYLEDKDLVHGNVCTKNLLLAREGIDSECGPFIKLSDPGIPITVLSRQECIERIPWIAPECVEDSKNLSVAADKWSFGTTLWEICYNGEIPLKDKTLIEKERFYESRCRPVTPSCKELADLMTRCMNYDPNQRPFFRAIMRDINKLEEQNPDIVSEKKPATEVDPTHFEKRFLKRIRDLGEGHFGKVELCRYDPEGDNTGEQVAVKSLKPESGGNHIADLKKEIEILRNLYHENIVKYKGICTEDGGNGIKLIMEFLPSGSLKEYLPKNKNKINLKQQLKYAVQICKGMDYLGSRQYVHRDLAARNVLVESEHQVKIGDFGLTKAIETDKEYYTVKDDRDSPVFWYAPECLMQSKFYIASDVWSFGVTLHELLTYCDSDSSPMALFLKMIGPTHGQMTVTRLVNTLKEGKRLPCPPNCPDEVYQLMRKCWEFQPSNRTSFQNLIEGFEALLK

Sequence of JAK3 (P52333 whole entry): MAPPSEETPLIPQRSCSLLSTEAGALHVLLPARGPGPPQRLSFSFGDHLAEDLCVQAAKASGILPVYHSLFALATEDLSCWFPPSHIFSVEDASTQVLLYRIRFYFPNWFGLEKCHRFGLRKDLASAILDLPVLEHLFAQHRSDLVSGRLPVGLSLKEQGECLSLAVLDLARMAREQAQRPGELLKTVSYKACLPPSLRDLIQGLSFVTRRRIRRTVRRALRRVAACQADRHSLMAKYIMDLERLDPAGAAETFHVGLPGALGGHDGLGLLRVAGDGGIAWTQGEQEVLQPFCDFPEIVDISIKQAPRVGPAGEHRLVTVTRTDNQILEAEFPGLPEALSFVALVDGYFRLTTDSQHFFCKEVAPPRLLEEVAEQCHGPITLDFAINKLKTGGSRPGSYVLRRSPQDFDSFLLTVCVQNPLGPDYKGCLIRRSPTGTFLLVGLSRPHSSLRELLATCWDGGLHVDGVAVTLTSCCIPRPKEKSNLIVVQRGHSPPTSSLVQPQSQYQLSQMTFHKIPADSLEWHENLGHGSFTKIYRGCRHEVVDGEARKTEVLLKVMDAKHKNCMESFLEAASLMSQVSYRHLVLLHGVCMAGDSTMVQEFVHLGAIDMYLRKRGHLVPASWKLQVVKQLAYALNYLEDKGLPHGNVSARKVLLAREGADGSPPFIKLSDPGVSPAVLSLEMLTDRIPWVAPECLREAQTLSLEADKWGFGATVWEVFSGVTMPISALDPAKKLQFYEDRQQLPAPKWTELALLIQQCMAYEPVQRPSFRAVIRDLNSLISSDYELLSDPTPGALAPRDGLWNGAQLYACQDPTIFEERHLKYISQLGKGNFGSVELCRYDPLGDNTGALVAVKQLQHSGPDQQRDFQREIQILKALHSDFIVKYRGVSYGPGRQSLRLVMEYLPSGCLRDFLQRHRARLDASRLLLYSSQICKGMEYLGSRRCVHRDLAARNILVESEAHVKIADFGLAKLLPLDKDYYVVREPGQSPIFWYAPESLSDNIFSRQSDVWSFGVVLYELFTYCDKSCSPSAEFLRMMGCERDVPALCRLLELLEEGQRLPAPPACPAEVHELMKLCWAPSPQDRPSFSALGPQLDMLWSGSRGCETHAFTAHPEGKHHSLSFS

Regarding `C=CC(=O)N(C)c1cc(Nc2ncc(Cl)c(NCCCNC(=O)c3ccc(N(C)C)cc3)n2)ccc1F` [Example 32, N-(3-(5-chloro-2-(4-fluoro-3-(N-methylacrylamido)phenylamino)pyrimidinyl-4-amino)propyl)-4-dimethylamino benzamide], the activity at 0.3 µM with CTLL-2 cells is 16%. Moreover, the activity at 10 µM with HUVEC cells was 72%. Moreover, the activity with HeLa cells was 68%. Also, the “JAK3 RV (ratio between the inhibitory rate of the test compound and that of Xeljanz)” value on JAK3 amounted to 0.94. Besides, the inhibition at 0.03 µM on JAK3 (read-out: JAK3 % inhibitory rate @30 nM) turned out to be 89%; at JAK2 (read-out: JAK2 % inhibitory rate @30 nM), 2%. The “JAK2 RV (ratio between the inhibitory rate of the test compound and that of Xeljanz)” value on JAK2 worked out at 0.03. In addition, the “JAK1 RV (ratio between the inhibitory rate of the test compound and that of Xeljanz)” value on JAK1 was determined as 0.57. In addition, on JAK1 (read-out: JAK1 % inhibitory rate @300 nM), the inhibition at 0.3 µM came to 49%.
